Measurements reported in US20190100534A1, “Cephem Compounds with Latent Reactive Groups” (Gladius Pharmaceuticals, Inc., priority 2017, published 2019).

Tests used:
Assay in all cases: MIC determination, isogenic E. coli strains
Assay type in all cases: cell-based
[1] = test system: E. coli J53 Alone; settings: for Mimimum Inhibitory Concentrations, J53 Alone: CAMH broth, 20 μM Apo-Transferrin, 37° C., 18 hours; for MIC: Escherichia coli, J53ALONE, 18 h, read-out: Mimimum Inhibitory Concentrations, J53 Alone
Method: (§1) Sterile technique was used throughout these experiments. Suspensions of organisms were removed from storage (−80° C.) and partially thawed. Partially thawed organisms (1 μL) were inoculated into 3 mL sterile LB Broth in a sterile culture tube and capped, then cultured at 37° C. with shaking for 4-5 hours until the optical density at 600 nm (OD600) was greater than 0.1 on a single beam spectrophotometer.
(§2) The concentration of organisms was adjusted to 0.08-0.1 OD600 (0.5 McFarland units) by dilution with sterile cation-adjusted Meuller-Hinton (CAMH) broth. The suspensions were used within 30 minutes of preparation.
(§3) A stock solution was made of each test compound by measuring 6.4 mg of the compound on an analytical balance and dissolving it in DMSO (1 mL) to get a transparent solution. The solutions were stored at −20° C. and thawed prior to use.
(§4) Sterile CAMH broth (200 μL) containing 20 μM Apo-Transferrin was pipetted into the first row of 8 columns of a sterile, round-bottomed, transparent, 96-well microplate using an 8-channel pipette equipped with sterile tips. One hundred μL was pipetted into the wells of the remaining 11 rows.
(§5) With an 8-channel pipette equipped with sterile tips, 100 μL of the first row solution was transferred to the second row and mixed. The process was repeated for the second to third rows and continued through row 11. One hundred μL from row 11 was removed and discarded so that all 12 rows contained 100 μL. Row 12 contained no compound and rows 1-11 contained 64, 32, 16, 8, 4, 2, 1, 0.5, 0.25, 0.125, […] of a given compound.
(§6) Inoculant suspensions (0.5 μL) were added to the 12 wells of each column. The plates were then covered and incubated at 37° C. overnight for 18 hours.
(§7) For each organism the MIC was determined by identifying the transparent well with the lowest test compound concentration.
(§8) The gene sequence for each beta-lactamase enzyme was synthesized and inserted into the pBC-SK(+) plasmid by GenScript, a commercial service. E. coli J53 was transformed with each plasmid via electroporation and resistant transformants were selected on agar plates containing 50 micrograms/mL ampicillin. The selected transformants were stored at −80 degrees C. in 20% glycerol.

[2] = test system: Isogenic E. coli J58 strain carrying DHA-1; settings: for Mimimum Inhibitory Concentrations, DHA-1: isogenic E. coli strain, CAMH broth, 20 μM Apo-Transferrin, 37° C., 18 hours; for MIC: Escherichia coli, 18 h, read-out: Mimimum Inhibitory Concentrations, DHA-1
Method: as §1, §2, §3, §4, §5, §6, §7, §8

[3] = test system: Isogenic E. coli J58 strain carrying KPC-3; settings: for Mimimum Inhibitory Concentrations, KPC-3: isogenic E. coli strain, CAMH broth, 20 μM Apo-Transferrin, 37° C., 18 hours; for MIC: Escherichia coli, 18 h, read-out: Mimimum Inhibitory Concentrations, KPC-3
Method: as §1, §2, §3, §4, §5, §6, §7
(§9) KPC-2 and KPC-3 (Class A, Group 2f, carbapenemases);
as §8

[4] = test system: Isogenic E. coli J58 strain carrying KPC-2; settings: for Mimimum Inhibitory Concentrations, KPC-2: isogenic E. coli strain, CAMH broth, 20 μM Apo-Transferrin, 37° C., 18 hours; for MIC: Escherichia coli, 18 h, read-out: Mimimum Inhibitory Concentrations, KPC-2
Method: as §1, §2, §3, §4, §5, §6, §7, §9, §8

[5] = test system: Isogenic E. coli J58 strain carrying TEM-26; settings: for Mimimum Inhibitory Concentrations, TEM-26: isogenic E. coli strain, CAMH broth, 20 μM Apo-Transferrin, 37° C., 18 hours; for MIC: Escherichia coli, 18 h, read-out: Mimimum Inhibitory Concentrations, TEM-26
Method: as §1, §2, §3, §4, §5, §6, §7
TEM-26 (Group 2be beta-lactamase, hydrolyzes extended spectrum cephalosporins and monobactams), [25];
as §8

[6] = test system: Isogenic E. coli J58 strain carrying VIM-2; settings: for Mimimum Inhibitory Concentrations, VIM-2: isogenic E. coli strain, CAMH broth, 20 μM Apo-Transferrin, 37° C., 18 hours; for MIC: Escherichia coli, 18 h, read-out: Mimimum Inhibitory Concentrations, VIM-2
Method: as §1, §2, §3, §4, §5, §6, §7
VIM-2 (Group 3a carbapenemase, metallo-beta-lactamase); and
as §8

[7] = test system: Isogenic E. coli J58 strain carrying IMP-1; settings: for Mimimum Inhibitory Concentrations, IMP-1: isogenic E. coli strain, CAMH broth, 20 μM Apo-Transferrin, 37° C., 18 hours; for MIC: Escherichia coli, 18 h, read-out: Mimimum Inhibitory Concentrations, IMP-1
Method: as §1, §2, §3, §4, §5, §6, §7
IMP-1 (Group 3a carbapenemase, metallo-beta-Lactamase).
as §8

[8] = test system: Isogenic E. coli J58 strain carrying SHV-1; settings: for Mimimum Inhibitory Concentrations, SHV-1: isogenic E. coli strain, CAMH broth, 20 μM Apo-Transferrin, 37° C., 18 hours; for MIC: Escherichia coli, 18 h, read-out: Mimimum Inhibitory Concentrations, SHV-1
Method: as §1, §2, §3, §4, §5, §6, §7
SHV-1 (Class A, Group 2b beta-lactamase, hydrolyzes penicillins and early cephalosporins);
as §8

[9] = test system: Isogenic E. coli J58 strain carrying NDM-1; settings: for Mimimum Inhibitory Concentrations, NDM-1: isogenic E. coli strain, CAMH broth, 20 μM Apo-Transferrin, 37° C., 18 hours; for MIC: Escherichia coli, 18 h, read-out: Mimimum Inhibitory Concentrations, NDM-1
Method: as §1, §2, §3, §4, §5, §6, §7
NDM-1 (Group 3a carbapenemase, broad spectrum divalent Zn^++ metallo-Beta-Lactamase);
as §8

[10] = test system: Isogenic E. coli J58 strain carrying CTX-M-14; settings: for Mimimum Inhibitory Concentrations, CTX-M-14: isogenic E. coli strain, CAMH broth, 20 μM Apo-Transferrin, 37° C., 18 hours; for MIC: Escherichia coli, 18 h, read-out: Mimimum Inhibitory Concentrations, CTX-M-14
Method: as §1, §2, §3, §4, §5, §6, §7
(§10) CTX-M-14 and CTX-M-15 (Class A, Group 2be beta-lactamases, hydrolyzes extended spectrum cephalosporins and monobactams);
as §8

[11] = test system: Isogenic E. coli J58 strain carrying CTX-M-15; settings: for Mimimum Inhibitory Concentrations, CTX-M-15: isogenic E. coli strain, CAMH broth, 20 μM Apo-Transferrin, 37° C., 18 hours; for MIC: Escherichia coli, 18 h, read-out: Mimimum Inhibitory Concentrations, CTX-M-15
Method: as §1, §2, §3, §4, §5, §6, §7, §10, §8

Structure (SMILES)	Mimimum Inhibitory Concentrations, J53 Alone ([1]; Table 4-1) [microgram/mL]	Mimimum Inhibitory Concentrations, J53 Alone ([1]; Table 4-2) [microgram/mL]	Mimimum Inhibitory Concentrations, DHA-1 [2] [microgram/mL]	Mimimum Inhibitory Concentrations, KPC-3 [3] [microgram/mL]	Mimimum Inhibitory Concentrations, KPC-2 [4] [microgram/mL]	Mimimum Inhibitory Concentrations, TEM-26 [5] [microgram/mL]	Mimimum Inhibitory Concentrations, VIM-2 [6] [microgram/mL]	Mimimum Inhibitory Concentrations, IMP-1 [7] [microgram/mL]	Mimimum Inhibitory Concentrations, SHV-1 [8] [microgram/mL]	Mimimum Inhibitory Concentrations, NDM-1 [9] [microgram/mL]	Mimimum Inhibitory Concentrations, CTX-M-14 [10] [microgram/mL]	Mimimum Inhibitory Concentrations, CTX-M-15 [11] [microgram/mL]	MIC [1] [µg/mL]	MIC [2] [µg/mL]	MIC [3] [µg/mL]	MIC [4] [µg/mL]	MIC [5] [µg/mL]	MIC [6] [µg/mL]	MIC [7] [µg/mL]	MIC [8] [µg/mL]	other results
CC(C)(O/N=C(\C(=O)N[C@@H]1C(=O)N2C(C(=O)O)=C(C=Cc3ccc(C[n+]4ccc(O)c(O)c4)cc3)CS[C@H]12)c1csc(N)n1)C(=O)O (mixture of isomers) [Compound 443, 1-(4-((E/Z)-2-((6R,7R)-7-((Z)-2-(2-aminothiazol-4-yl)-2-(((2-carboxypropan-2-yl)oxy)imino)acetamido)-2-carboxy-8-oxo-5-thia-1-azabicyclo[4.2.0]oct-2-en-3-yl)vinyl)benzyl)-3,4-dihydroxypyridin-1-ium]	0.13	0.13	1	4	8	2	0.25	4	1	>64	0.25	1	–	–	–	–	–	–	–	–	–
CC(C)(O/N=C(\C(=O)N[C@@H]1C(=O)N2C(C(=O)O)=C(C=Cc3ccc(C[N+]4(C5CCC5)CCc5ccc(O)c(O)c5C4)cc3)CS[C@H]12)c1csc(N)n1)C(=O)O (mixture of isomers) [Compound 444, 2-(4-((E/Z)-2-((6R,7R)-7-((Z)-2-(2-aminothiazol-4-yl)-2-(((2-carboxypropan-2-yl)oxy)imino)acetamido)-2-carboxy-8-oxo-5-thia-1-azabicyclo[4.2.0]oct-2-en-3-yl)vinyl)benzyl)-2-cyclobutyl-7,8-dihydroxy-1,2,3,4-tetrahydroisoquinolin-2-ium]	0.5	0.5	1	2	8	0.25	0.5	0.5	1	32	0.25	1	–	–	–	–	–	–	–	–	MICs for an E. coli strain carrying the gene for NDM-1, in words ([9]; review of Tables 4-1 and 4-2): lower MICS compared to other compounds tested
CC(C)(O/N=C(\C(=O)N[C@@H]1C(=O)N2C(C(=O)O)=C(C=Cc3ccc(C[N+]4(C)CCc5cc(O)c(O)cc5C4)cc3[N+](=O)[O-])CS[C@H]12)c1csc(N)n1)C(=O)O (mixture of isomers) [Compound 445, 2-(4-((E/Z)-2-((6R,7R)-7-((Z)-2-(2-aminothiazol-4-yl)-2-(((2-carboxypropan-2-yl)oxy)imino)acetamido)-2-carboxy-8-oxo-5-thia-1-azabicyclo[4.2.0]oct-2-en-3-yl)vinyl)-3-nitrobenzyl)-6,7-dihydroxy-2-methyl-1,2,3,4-tetrahydroisoquinolin-2-ium]	–	1	–	–	–	–	–	–	–	–	–	–	1	1	16	64	1	0.25	1	1	MIC [9]: > 64 µg/mL; MIC [10]: 4 µg/mL; MIC [11]: 4 µg/mL
CC(C)(O/N=C(\C(=O)N[C@@H]1C(=O)N2C(C(=O)O)=C(/C=C/c3ccc(C[n+]4ccn(-c5ccc(O)c(O)c5)c4)cc3)CS[C@H]12)c1csc(N)n1)C(=O)O [Compound 414, 3-(4-((E)-2-((6R,7R)-7-((Z)-2-(2-aminothiazol-4-yl)-2-(((2-carboxypropan-2-yl)oxy)imino)acetamido)-2-carboxy-8-oxo-5-thia-1-azabicyclo[4.2.0]oct-2-en-3-yl)vinyl)benzyl)-1-(3,4-dihydroxyphenyl)-1H-imidazol-3-ium]	–	0.25	–	–	–	–	–	–	–	–	–	–	0.25	0.5	4	8	1	1	8	1	MIC [9]: > 64 µg/mL; MIC [10]: 2 µg/mL; MIC [11]: 1 µg/mL
